According to ChEMBL document CHEMBL1201862, “PubChem BioAssay data set” (2004):
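Assay format: 96-well plates, 48-hour exposure. At the GI50, growth is halved.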 Activity calls are given as the source filed them. Cut-off read from the data, not from the text of the source: active = GI50 up to about 1.1 µM and inactive = higher. Where a SMILES comes first, the peptide text is derived from it. [ ]: non-standard residue; d: D form. The star is where a group is joined. Bn2Val = CC(C)[C@@H](C(=O)*)N(Cc1ccccc1)Cc1ccccc1; NH(4-F-benzyl) = Fc1ccc(CN*)cc1; NMeV = CN[C@H](C(=O)O)C(C)C; dNMeA = CN[C@H](C)C(=O)O

How the values were obtained:
Experiment in all cases: NCI anticancer screen, dose series, 48 h
MDA-N = tested on: MDA-N
SR = tested on: SR
LOX IMVI = tested on: LOX IMVI
MDA-MB-231 = tested on: MDA-MB-231
ACHN = tested on: ACHN
Hs-578T = tested on: Hs-578T
786-0 = tested on: 786-0
HCT-116 = tested on: HCT-116
OVCAR-5 = tested on: OVCAR-5
SF-295 = tested on: SF-295
SK-MEL-28 = tested on: SK-MEL-28
U-251 = tested on: U-251
BT-549 = tested on: BT-549
NCI-H460 = tested on: NCI-H460
OVCAR-4 = tested on: OVCAR-4
RPMI-8226 = tested on: RPMI-8226
CAKI-1 = tested on: CAKI-1
MOLT-4 = tested on: MOLT-4
SN12C = tested on: SN12C

| Structure (SMILES) | GI50 (MDA-N) | GI50 (SR) | GI50 (LOX IMVI) | GI50 (MDA-MB-231) | GI50 (ACHN) | GI50 (Hs-578T) | GI50 (786-0) | GI50 (HCT-116) | GI50 (OVCAR-5) | GI50 (SF-295) | GI50 (SK-MEL-28) | GI50 (U-251) | GI50 (BT-549) | GI50 (NCI-H460) | GI50 (OVCAR-4) | GI50 (RPMI-8226) | GI50 (CAKI-1) | GI50 (MOLT-4) | GI50 (SN12C) |
| --- | --- | --- | --- | --- | --- | --- | --- | --- | --- | --- | --- | --- | --- | --- | --- | --- | --- | --- | --- |
| O=C1/C(=C\c2ccc([N+](=O)[O-])cc2)CS(=O)(=O)C/C1=C/c1ccc([N+](=O)[O-])cc1 | 0.35 µM (active) | 0.03 µM (active) | 0.597 µM (active) | 0.193 µM (active) | 0.705 µM (active) | 1.35 µM (inactive) | 0.149 µM (active) | 0.288 µM (active) | 1.36 µM (inactive) | 1.74 µM (inactive) | 1.13 µM (inactive) | 0.298 µM (active) | 0.316 µM (active) | 0.515 µM (active) | 0.342 µM (active) | 0.0942 µM (active) | 1.4 µM (inactive) | – | – |
| CC1=NC(=Cc2cc(Br)cc(Br)c2)C(=O)N1n1c(-c2ccccc2)nc2ccccc2c1=O | > 100 µM (inactive) | 55.2 µM (inactive) | > 100 µM (inactive) | > 100 µM (inactive) | > 100 µM (inactive) | > 100 µM (inactive) | > 100 µM (inactive) | > 100 µM (inactive) | > 100 µM (inactive) | > 100 µM (inactive) | > 100 µM (inactive) | > 100 µM (inactive) | > 100 µM (inactive) | > 100 µM (inactive) | > 100 µM (inactive) | > 100 µM (inactive) | > 100 µM (inactive) | > 100 µM (inactive) | > 100 µM (inactive) |
| CCN(CC)Cc1nc(C2CCC([N+](=O)[O-])O2)no1 (stereo unspecified) | 17.4 µM (inactive) | 28.2 µM (inactive) | 31.4 µM (inactive) | 26.7 µM (inactive) | 98.2 µM (inactive) | 31.6 µM (inactive) | 40 µM (inactive) | 24.3 µM (inactive) | 29.3 µM (inactive) | 30.1 µM (inactive) | 20.3 µM (inactive) | 28.5 µM (inactive) | 23.3 µM (inactive) | 20.5 µM (inactive) | 77.3 µM (inactive) | 31.3 µM (inactive) | 72.8 µM (inactive) | 53.5 µM (inactive) | 47.1 µM (inactive) |
| COc1ccc(CNC(=O)[C@H](Cc2ccc(O)cn2)NC(C)=O)cc1OC | > 100 µM (inactive) | > 100 µM (inactive) | > 100 µM (inactive) | > 100 µM (inactive) | > 100 µM (inactive) | > 74.5 µM (inactive) | > 100 µM (inactive) | > 100 µM (inactive) | > 100 µM (inactive) | > 100 µM (inactive) | > 100 µM (inactive) | > 100 µM (inactive) | > 100 µM (inactive) | > 100 µM (inactive) | > 100 µM (inactive) | > 100 µM (inactive) | > 100 µM (inactive) | > 96.8 µM (inactive) | > 100 µM (inactive) |
| COC(=O)C1=CS/C(=C2\S[C@@H]3[C@H](S2)[C@H]2C=C[C@@H]3C2)S1 | 3.49 µM (inactive) | 3.4 µM (inactive) | 13.1 µM (inactive) | > 100 µM (inactive) | – | 81.3 µM (inactive) | 92 µM (inactive) | 8.09 µM (inactive) | – | 2.96 µM (inactive) | 62.7 µM (inactive) | 8.49 µM (inactive) | > 100 µM (inactive) | 34.9 µM (inactive) | > 100 µM (inactive) | 30.7 µM (inactive) | 7.14 µM (inactive) | 5.19 µM (inactive) | > 100 µM (inactive) |
| NCCCN(CCCN)CCc1cn(C(=O)c2ccccc2)cn1 | 9.1 µM (inactive) | 2.24 µM (inactive) | 11.6 µM (inactive) | 14.2 µM (inactive) | 6.5 µM (inactive) | 11.4 µM (inactive) | 8.59 µM (inactive) | 4.86 µM (inactive) | 16.2 µM (inactive) | 12.7 µM (inactive) | 13.8 µM (inactive) | 14.4 µM (inactive) | 12.5 µM (inactive) | 15.7 µM (inactive) | 4.93 µM (inactive) | 2.38 µM (inactive) | 4.46 µM (inactive) | 2.19 µM (inactive) | 6.41 µM (inactive) |
| COc1cccc(-c2cc(O)c3cc(C)cnc3n2)c1 | 0.0106 µM (active) | 0.0297 µM (active) | 0.0512 µM (active) | 0.415 µM (active) | 0.0625 µM (active) | 0.0495 µM (active) | 0.0488 µM (active) | 0.0323 µM (active) | 0.82 µM (active) | 0.0405 µM (active) | 0.0787 µM (active) | 0.0473 µM (active) | > 100 µM (inactive) | 0.0458 µM (active) | > 67.1 µM (inactive) | 0.0421 µM (active) | 0.0389 µM (active) | 0.115 µM (active) | 0.0538 µM (active) |
| CNC(=O)C1CCCN1C(=O)C(Cc1c[nH]cn1)NC(=O)C1CCC(=O)N1 (stereo unspecified) | > 100 µM (inactive) | > 100 µM (inactive) | > 100 µM (inactive) | > 100 µM (inactive) | > 100 µM (inactive) | > 100 µM (inactive) | 85.5 µM (inactive) | > 100 µM (inactive) | > 100 µM (inactive) | > 100 µM (inactive) | > 100 µM (inactive) | > 100 µM (inactive) | > 100 µM (inactive) | > 100 µM (inactive) | > 100 µM (inactive) | > 100 µM (inactive) | > 100 µM (inactive) | > 100 µM (inactive) | > 100 µM (inactive) |
| CC1=NN=C(C)C1/N=N/c1ccc2[nH]c(C)nc2c1 | 19.8 µM (inactive) | 5.41 µM (inactive) | 9.1 µM (inactive) | 28.6 µM (inactive) | 7.46 µM (inactive) | 5.36 µM (inactive) | 34.4 µM (inactive) | 10.9 µM (inactive) | 26.2 µM (inactive) | 17.9 µM (inactive) | 35.6 µM (inactive) | 34.6 µM (inactive) | 20.8 µM (inactive) | 11 µM (inactive) | 58.1 µM (inactive) | 13.7 µM (inactive) | 5.02 µM (inactive) | 13.7 µM (inactive) | > 52 µM (inactive) |
| Nc1ncnc2c1nc(Cl)n2C1OC(CO)C(O)C1O (stereo unspecified) | 2.94 µM (inactive) | 1.13 µM (inactive) | 0.424 µM (active) | 6.95 µM (inactive) | 0.489 µM (active) | 15.3 µM (inactive) | 1.79 µM (inactive) | 0.352 µM (active) | 2.28 µM (inactive) | 5.11 µM (inactive) | > 45.5 µM (inactive) | 7.59 µM (inactive) | 3.15 µM (inactive) | 0.414 µM (active) | 5.07 µM (inactive) | 1.44 µM (inactive) | 1.21 µM (inactive) | 0.474 µM (active) | 1.88 µM (inactive) |
| COc1ccc(/C=C2\C[C@H]3[C@@H]4CC=C5C[C@@H](O)CC[C@]5(C)[C@H]4CC[C@]3(C)\C2=N\O)cc1 | 18.8 µM (inactive) | 1.89 µM (inactive) | 11.6 µM (inactive) | 35.2 µM (inactive) | 19.5 µM (inactive) | 10 µM (inactive) | 14.3 µM (inactive) | 5.35 µM (inactive) | – | 6.98 µM (inactive) | 24.2 µM (inactive) | 10.5 µM (inactive) | 7.69 µM (inactive) | 34.4 µM (inactive) | 51.5 µM (inactive) | 2.26 µM (inactive) | 2.58 µM (inactive) | 5.89 µM (inactive) | 18.1 µM (inactive) |
| O=C(NN=C1CCCCC1)Nc1ccccc1Cl | 18.1 µM (inactive) | 22.5 µM (inactive) | 53.7 µM (inactive) | > 100 µM (inactive) | > 100 µM (inactive) | 32 µM (inactive) | > 100 µM (inactive) | 48.8 µM (inactive) | 54.2 µM (inactive) | 33.3 µM (inactive) | 79.3 µM (inactive) | 84.5 µM (inactive) | 64.4 µM (inactive) | 42.5 µM (inactive) | > 100 µM (inactive) | 45.9 µM (inactive) | 92.7 µM (inactive) | 47.8 µM (inactive) | 57.5 µM (inactive) |
| Nc1[nH]c(=S)[nH]c(=O)c1/N=N/c1c(Br)cc(S(N)(=O)=O)cc1Br | > 100 µM (inactive) | > 100 µM (inactive) | > 100 µM (inactive) | > 100 µM (inactive) | > 100 µM (inactive) | > 100 µM (inactive) | > 100 µM (inactive) | > 100 µM (inactive) | > 100 µM (inactive) | > 100 µM (inactive) | > 100 µM (inactive) | > 100 µM (inactive) | > 100 µM (inactive) | > 100 µM (inactive) | > 100 µM (inactive) | > 100 µM (inactive) | > 100 µM (inactive) | > 100 µM (inactive) | > 100 µM (inactive) |
| CC(C)[C@H](NC(=O)[C@H](C(C)C)N(Cc1ccccc1)Cc1ccccc1)C(=O)N(C)[C@H](C(=O)N1CCC[C@H]1C(=O)N(C)[C@H](C)C(=O)NCc1ccc(F)cc1)C(C)C (Bn2Val-V[NMeV]P[dNMeA]-{NH(4-F-benzyl)}) | 4.29 µM (inactive) | 2.14 µM (inactive) | 1.85 µM (inactive) | 3.55 µM (inactive) | 3.33 µM (inactive) | 4.5 µM (inactive) | 4.23 µM (inactive) | 2.97 µM (inactive) | 3.59 µM (inactive) | 3.44 µM (inactive) | 7.29 µM (inactive) | 3.3 µM (inactive) | 4.06 µM (inactive) | 4 µM (inactive) | 4.28 µM (inactive) | 3.27 µM (inactive) | 5.13 µM (inactive) | 2.55 µM (inactive) | 3.15 µM (inactive) |
